Laboratory results from patent US20060281791A1, “Methods of increasing proliferation of adult mammalian cardiomyocytes through p38 map kinase inhibition” (CHILDREN'S MEDICAL CENTER CORPORATION, priority 2005, published 2006).

Columns and labels:
[1] = tested on: neonatal (P2) cardiomyocytes; assay: Induction of DNA synthesis (BrdU incorporation) in neonatal cardiomyocytes; format: cell-based, rat; settings: BrdU labeling period 24 to 72 hours; harvested after 72 hours; optimal concentration of stimulus
Procedure: Animal experiments were performed in accordance with guidelines of Children's Hospital, Boston and UCLA. Ventricular cardiomyocytes from fetal (E19), 2-day-old (P2) and adult (250-350 g) Wistar rats (Charles River) were isolated as described with minor modifications (Engel et al. 1999; Engel et al. 2003). After digestion of fetal or neonatal hearts (0.14 mg/ml collagenase II (Invitrogen), 0.55 mg/ml pancreatin (Sigma)) cells were cultured in DMEM/F12 (GIBCO) containing 3 mM Na-pyruvate, 0.2% BSA, 0.1 mM ascorbic acid (Sigma), 0.5% Insulin-Transferrin-Selenium (100×), penicillin (100 U/ml), streptomycin (100 μg/ml), and 2 mM L-glutamine (GIBCO). Adult cardiomyocytes were cultured for 1 day in standard medium (DMEM, 25 mM Hepes, 5 mM taurine, 5 mM creatine, 2 mM L-carnitine (Sigma), 20 U/ml insulin (GIBCO), 0.2% BSA, penicillin (100 U/ml), and streptomycin (100 μg/ml)). Cells were stimulated in culture medium without BSA containing 2 mM L-glutamine. Neonatal and adult cardiomyocytes were initially cultured for 48 h in the presence of 20 μM cytosine β-D-arabinofuranoside (araC, Sigma) and 5% horse serum before stimulation to prevent proliferation of non-myocytes. Adult cardiomyocytes were incubated another 3 days with araC during stimulation. Neonatal cardiomyocytes were stimulated every day with growth factors for BrdU and H3P analyses (FGF1 and NRG-1-1β at 50 ng/ml, IL-1β at 100 ng/ml, R&D Systems, all diluted in 0.1% BSA/PBS). SB203580 and LY294002 (Calbiochem) was added every day. Adult cardiomyocytes were stimulated with fresh medium and SB203580 every 3 days.
Staining was performed as described (Supplemental Table S3) (Engel et al. 1999; Engel et al. 2003). Immune complexes were detected with ALEXA 350, ALEXA 488 or ALEXA 594-conjugated secondary antibodies (1:200, Molecular Probes). DNA was visualised with DAPI (4′,6′-diamidino-2-phenylindole, 0.5 μg/ml, Sigma). For BrdU, cells were cultured in 30 μM BrdU, incubated after permeabilization for 90 min in 2N HCl/1% triton X-100 and washed 3 times in PBS.
Eighteen to 40 hearts of 3 different litters were used for quantitative analyses of maximal areas. For immunofluorescence analyses 1,500 fetal or neonatal cardiomyocytes were counted. For adult cardiomyocyte analyses in vitro the following number of cells were counted: 500-2,000 for BrdU or Ki67, 9,000-25,000 for H3P, and 12,000-45,000 for aurora B. For in vivo MKK3bE and p38α knockout experiments 2 different litters were used. We counted 1,500-2,000 cells in each apex, left and right ventricle per heart. For adult experiments we analyzed 2 p38α^Δ/Δ and 2 p38^lox/lox hearts (24 sections each). Statistical significance was determined using Student's t test.
Several growth factors have a limited capacity to induce DNA synthesis in neonatal cardiomyocytes, including FGF1 (Pasumarthi and Field 2002). We screened 45 extracellular factors at two different concentrations for their ability to induce BrdU incorporation in neonatal (P2) cardiomyocytes. […] We confirmed previous studies showing that FGF1, IL-1β, and NRG-1-β1 are potent growth factors for neonatal cardiomyocytes (Supplemental Table S2) (Pasumarthi and Field 2002 Circ Res 90: 1044-54).
Inhibition of p38 activity by SB203580 increased BrdU incorporation 2.8-fold in neonatal cardiomyocytes stimulated with FGF1 (p<0.01). Similar results were obtained after stimulation with IL-1β and NRG-1-β1. Thus, inhibition of p38 activity augments growth factor-mediated DNA synthesis in neonatal cardiomyocytes.

[2] = tested on: p38 MAP kinase; settings: cited from earlier work
[3] = cited from earlier work
[4] = tested on: myocardial infarction in adult rats; assay: Fractional shortening (echocardiography) after myocardial infarction; format: in vivo, rat
Procedure: The p38 inhibitors were tested for in vivo effect following myocardial infarct. For the evaluation of left ventricular function, transthoracic echocardiogram can be performed on the rats after myocardial infarction 1 day or 14 days right. Rats can be anesthetized with 4-5% isoflurane in an induction chamber. The chest can be shaved, and the rats can be placed in dorsal decubitus position and intubated for continuous ventilation. 1-2% isoflurane can be continuously supplied via a mask. 3 electrodes can be adhered to their paws to record the electrocardiographic tracing simultaneously with the cardiac image identifying the phase of a cardiac cycle.
Echocardiograms can be performed with a commercially available echocardiography system equipped with 7.5 MHz phased-array transducer (Philips-Hewlett-Packard). The transducer can be positioned on the left anterior side of the chest. Longitudinal images of the heart can be obtained, including the left ventricle, atrium, the mitral valve and the aorta, followed by the cross-sectional images from the plane of the base to the left ventricular apical region. M-mode tracings can be obtained at the level below the tip of the mitral valve leaflets at the level of the papillary muscles. Fractional shorting (FS) can be calculated as a measure of systolic function, according to the M-mode tracing from the cross-sectional view: maximal LV end-diastolic diameter (at the time of maximal cavity dimension), minimal LV end-systolic diameter (at the time of maximum anterior motion of the posterior wall), FS (%)={(LVEDD−LVESD)/LVEDD}×100.
To determine whether p38 inhibition/FGF1 stimulation can induce cardiomyocyte proliferation in vivo and whether it has a positive effect on cardiac function after cardiac injury we created myocardial infarctions (MI) in adult rats (250 g) by coronary artery ligation. The p38 inhibitor SB203580 HCl or its vehicle, saline, were injected intraperitoneal every three days for the first month of the study. FGF1 or its carrier BSA was injected mixed with self-assembling peptides once into the infarct border zone immediately after coronary artery ligation. We injecting a total of 80 μl of 400 ng/ml FGF1, given at 3 different injection sites, into 400 mg of infarcted myocardium estimated to deliver a FGF 1 concentration to the cardiomyocytes of approximately 50 to 100 ng/ml. Animals were analyzed 24 hours, 2 weeks, and 3 month after surgery. We performed two blinded and randomized studies using 62 rats for the 2 week and 61 rats for the 3 month experiment, with at least 10 animals in each experimental group. Animals were treated with saline plus BSA (control), SB203580 HCl plus BSA (p38i), saline plus FGF1 (FGF1), or SB203580 HCl plus FGF1 (p38i/FGF1).
Animal experiments were performed in accordance with guidelines of Children's Hospital in Boston and were approved by the Harvard Medical School Standing Committee on Animals. Myocardial infarction (MI) was produced in ˜250 gm male Sprague-Dawley rats (Charles River and Harlan) as described previously (Hsieh et al., 2006). Briefly, rats were anesthetized by pentobarbital and, following tracheal intubation, the hearts were exposed via left thoracotomy. The left coronary artery was identified after pericardiotomy and was ligated by suturing with 6-0 prolene at the location ˜3mm below the left atrial appendix. For the sham operation, suturing was performed without ligation. […]

[5] = tested on: ERK; settings: cited from earlier work
[6] = tested on: JNK; settings: cited from earlier work
[7] = tested on: LPS-stimulated human peripheral blood monocytes; settings: cited from earlier work

Molecule: CNC[C@H](O)c1cccc(O)c1 [PE]
- % of BrdU positive neonatal cardiomyoctes [1]: 23.7 ± 3.1%

Molecule: CCc1nc(-c2ccc(OC)cc2)[nH]c1-c1ccncc1 [SB202474]
- p38 MAP kinase inhibition (in words) [2]: inactive

Molecule: C[S+]([O-])c1ccc(-c2nc(-c3ccc(F)cc3)c(-c3ccncc3)[nH]2)cc1.Cl (stereo not shown) [SB203580 HCl]
- water solubility [3]: water insoluble
- improvement of fractional shortening ([4]; 3 month after infarction): maintained
- improvement of fractional shortening ([4]; day 14 after infarction): maintained

Molecule: COc1nccc(-c2c(-c3ccc(F)cc3)ncn2[C@H]2CC[C@H](O)CC2)n1 [SB239063]
- selectivity over ERK [5]: > 200 fold
- selectivity over JNK [6]: > 200 fold
- IL-1 and TNF-β production [7]: inhibits
- p38 MAP kinase inhibition (in words) [2]: potent

Molecule: FGF2
- % of BrdU positive neonatal cardiomyoctes [1]: 22.2 ± 1.8%

Molecule: IL-1β
- % of BrdU positive neonatal cardiomyoctes [1]: 41.3 ± 3.2%

Molecule: TGFβ1
- % of BrdU positive neonatal cardiomyoctes [1]: 17.4 ± 2.2%

B1: CT-1 (protein, UniProt Q16619 1-201, looked up)
Cardiotrophin-1: MSRREGSLEDPQTDSSVSLLPHLEAKIRQTHSLAHLLTKYAEQLLQEYVQLQGDPFGLPSFSPPRLPVAGLSAPAPSHAGLPVHERLRLDAAALAALPPLLDAVCRRQAELNPRAPRLLRRLEDAARQARALGAAVEALLAALGAANRGPRAEPPAATASAASATGVFPAKVLGLRVCGLYREWLSRTEGDLGQLLPGGSA
- % of BrdU positive neonatal cardiomyoctes [1]: 11.2 ± 1.1%

B2: FGF4 (protein, UniProt P08620 31-206, looked up)
Fibroblast growth factor 4: APTAPNGTLEAELERRWESLVALSLARLPVAAQPKEAAVQSGAGDYLLGIKRLRRLYCNVGIGFHLQALPDGRIGGAHADTRDSLLELSPVERGVVSIFGVASRFFVAMSSKGKLYGSPFFTDECTFKEILLPNNYNAYESYKYPGMFIALSKNGKTKKGNRVSPTMKVTHFLPRL
- % of BrdU positive neonatal cardiomyoctes [1]: 46.5 ± 3.9%

B3: FGF6 (protein, UniProt P10767 38-208, looked up)
Fibroblast growth factor 6: SPAGTRANNTLLDSRGWGTLLSRSRAGLAGEIAGVNWESGYLVGIKRQRRLYCNVGIGFHLQVLPDGRISGTHEENPYSLLEISTVERGVVSLFGVRSALFVAMNSKGRLYATPSFQEECKFRETLLPNNYNAYESDLYQGTYIALSKYGRVKRGSKVSPIMTVTHFLPRI
- % of BrdU positive neonatal cardiomyoctes [1]: 47.3 ± 3.3%

B4: FGF17 (protein, UniProt O60258 23-216, looked up)
Fibroblast growth factor 17: TQGENHPSPNFNQYVRDQGAMTDQLSRRQIREYQLYSRTSGKHVQVTGRRISATAEDGNKFAKLIVETDTFGSRVRIKGAESEKYICMNKRGKLIGKPSGKSKDCVFTEIVLENNYTAFQNARHEGWFMAFTRQGRPRQASRSRQNQREAHFIKRLYQGQLPFPNHAEKQKQFEFVGSAPTRRTKRTRRPQPLT
- % of BrdU positive neonatal cardiomyoctes [1]: 31.1 ± 1.7%
